Key:
[1] = target: Sialic acid-binding Ig-like lectin 7 (Homo sapiens) (UniProt Q9Y286); experiment: Potency index, ratio of test compound IC50 to (2R,4S,5R,6R)-2-(3-(4-([1,1'-biphenyl]-4-yl)-1H-1,2,3-triazol-1-yl)propoxy)-5-acetamido-6-((1R,2R)-1,2-dihydroxy-3-(methylsulfonamido)propyl)-4-hydroxytetrahydro-2H-pyran-2-carboxylate Sodium IC50 for competitive inhibition of IgG1-fused human Siglec-7 Fc domain preincubated for 10 mins followed by addition of red blood cells incubated for 20 mins on ice by sandwich FACS analysis; details: time 30.0 min
[2] = target: Sialic acid-binding Ig-like lectin 7 (Homo sapiens) (UniProt Q9Y286); experiment: Potency index, ratio of test compound IC50 to (2R,4S,5R,6R)-2-(3-(4-([1,1'-biphenyl]-4-yl)-1H-1,2,3-triazol-1-yl)propoxy)-5-acetamido-4-hydroxy-6-((1R,2R)-1,2,3-trihydroxypropyl)tetrahydro-2H-pyran-2-carboxylate Sodium IC50 for competitive inhibition of IgG1-fused human Siglec-7 Fc domain preincubated for 10 mins followed by addition of red blood cells incubated for 20 mins on ice by sandwich FACS analysis; details: time 30.0 min
[3] = Solubility in water; assay type: physicochemical; details: buffer
[4] = Solubility in methanol; assay type: physicochemical
[5] = Solubility in PBS; assay type: physicochemical; details: buffer

Sialic acid-binding Ig-like lectin 7 (Homo sapiens), sequence (Q9Y286 whole entry, the tested form may be a part): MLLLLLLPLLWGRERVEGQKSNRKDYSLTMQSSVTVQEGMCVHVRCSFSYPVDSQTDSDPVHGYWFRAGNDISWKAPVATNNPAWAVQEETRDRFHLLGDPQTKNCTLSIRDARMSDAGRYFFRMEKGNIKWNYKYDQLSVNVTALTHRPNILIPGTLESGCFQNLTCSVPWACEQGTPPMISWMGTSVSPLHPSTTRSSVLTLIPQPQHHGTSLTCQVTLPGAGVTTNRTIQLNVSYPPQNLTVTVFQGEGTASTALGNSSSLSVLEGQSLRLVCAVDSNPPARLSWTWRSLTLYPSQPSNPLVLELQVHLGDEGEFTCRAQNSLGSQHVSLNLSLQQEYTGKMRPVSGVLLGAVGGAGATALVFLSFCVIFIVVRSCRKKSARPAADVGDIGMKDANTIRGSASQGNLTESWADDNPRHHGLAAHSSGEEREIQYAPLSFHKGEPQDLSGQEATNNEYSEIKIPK

Structure (SMILES)	Ratio IC50 [1]	Ratio IC50 [2]	also measured
CS(=O)(=O)NC[C@@H](O)[C@@H](O)[C@@H]1O[C@@](OCCCn2cc(-c3ccc(-c4ccccc4)cc3)nn2)(C(=O)O)C[C@H](O)[C@H]1NC(=O)COCc1ccccc1	0.3	–	–
CC(=O)N[C@H]1[C@H]([C@H](O)[C@H](O)CC(=O)O)O[C@@](OCCCn2cc(-c3ccc(-c4ccccc4)cc3)nn2)(C(=O)O)C[C@@H]1O	–	0.75	–
N[C@H]1[C@H]([C@H](O)[C@H](O)CO)O[C@@](OCCCn2cc(-c3ccc(-c4ccccc4)cc3)nn2)(C(=O)O)C[C@@H]1O	–	–	solubility [3]: Insoluble; solubility [4]: Insoluble
O=C(COCc1ccccc1)N[C@H]1[C@H]([C@H](O)[C@H](O)CO)O[C@@](OCCCn2cc(-c3ccc(-c4ccccc4)cc3)nn2)(C(=O)[O-])C[C@@H]1O.[Na+]	–	–	solubility [3]: Insoluble; solubility [5]: Insoluble
CS(=O)(=O)NC[C@@H](O)[C@@H](O)[C@@H]1O[C@@](OCCCn2cc(-c3ccc(-c4ccccc4)cc3)nn2)(C(=O)O)C[C@H](O)[C@H]1NC(=O)CF	1.5	–	–
CC(=O)N[C@H]1[C@H]([C@H](O)[C@H](O)CCNC(=O)Cc2ccccc2)O[C@@](OCCCn2cc(-c3ccc(-c4ccccc4)cc3)nn2)(C(=O)O)C[C@@H]1O	–	< 0.5	–
O=C(CO)N[C@H]1[C@H]([C@H](O)[C@H](O)CO)O[C@@](OCCCn2cc(-c3ccc(-c4ccccc4)cc3)nn2)(C(=O)O)C[C@@H]1O	–	1.5	–
CCC(=O)NCC[C@@H](O)[C@@H](O)[C@@H]1O[C@@](OCCCn2cc(-c3ccc(-c4ccccc4)cc3)nn2)(C(=O)O)C[C@H](O)[C@H]1NC(C)=O	–	< 0.5	–
O=C(CF)N[C@H]1[C@H]([C@H](O)[C@H](O)CO)O[C@@](OCCCn2cc(-c3ccc(-c4ccccc4)cc3)nn2)(C(=O)O)C[C@@H]1O	–	1.6	–
CS(=O)(=O)NC[C@@H](O)[C@@H](O)[C@@H]1O[C@@](OCCCn2cc(-c3ccc(-c4ccccc4)cc3)nn2)(C(=O)O)C[C@H](O)[C@H]1NC(=O)CO	1.2	–	–

Reference: ChEMBL document CHEMBL5370601, “Synthesis and Binding Mode Predictions of Novel Siglec-7 Ligands” (J Med Chem, 2023)
